Measurements: US20220354957A1, “PEPTIDES TARGETING MACROPHAGES, AND CONJUGATES, COMPOSITIONS, AND USES THEREOF” (Twinpig Biolab, Inc., priority 2021, published 2022)

What was measured:
CT26 = test: Colon cancer model (CT26); assay type: in vivo, mouse; details: vs PBS group
Source text: BALB/c and C57BL/6 (B6) wild-type mice were purchased from DBL. For the subcutaneous tumor model of melanoma and prostate cancer, CT26 (3×10^5 cells/mouse), B16F10 (1×10^6 cells/mouse) and TRAMP-C2 cells (1×10^6 cells/mouse) were mixed with Matrigel matrix (Corning) and inoculated subcutaneously into the right flank of the mice, and 4T1 (1×10^5 cells/mouse) cells mixed with Matrigel matrix and inoculated into a 4th mammary fat pad of the mice. TAMpepK, and MpepK peptides (200 nmol/kg) were injected intraperitoneally every 3 days, beginning at day 7 after tumor inoculation, and tumor volume was measured by electronic caliper. All tumor tissues were harvested after the end of the study and tumor weight was measured by an electronic balance.

[1] = test system: TGF-β1-induced A549 cells cocultured with IL-4 and IL-13 induced THP-1 macrophages; test: In vitro lung fibrosis model, coculture; assay type: cell-based, human; details: 1.5 μM, cocultured with M2 polarization of THP-1
Method: THP-1 cells were purchased from the American Type Culture Collection (ATCC) and cultured according to their specific indications, using an RPMI 1640 medium supplemented with non-heat-treated 10% fetal bovine serum (FBS; WelGENE), 2 mM L-glutamine, 0.05 mM β-mercaptoethanol, 10 mM HEPES, 4500 mg/L glucose, 100 U/ml penicillin and 100 μg/ml streptomycin (Gibco). Human alveolar cell, A549 cells, obtained from the American Type Culture Collection (ATCC), were cultured in RPMI 1640 medium containing 2.05 mM L-glutamine, 2 g/liter sodium bicarbonate and 2 g/liter glucose (WelGENE) together with 10% FBS (WelGENE), 100 U/ml penicillin and 100 μg/m1 streptomycin (Gibco). Cells were cultured at 37° C. in a 5% CO2 humidified incubator to reach 80% of confluence.
THP-1 cells are differentiated into macrophages by 24 h incubation with 100 nM phorbol 12-myristate 13-acetate (PMA, Sigma) followed by 24 h incubation in RPMI medium (Invtrogen). […]
Total RNA was extracted using Easy-Blue reagent. Concentrations of RNA were determined and quantified by measuring absorbance at 260 and 280 nm with a spectrophotometer. […] PCR conditions were forty-five cycles at 95° C. for 5 min, followed by 95° C. for 10 sec, 60° C. for 10 sec and 72° C. for 10 sec. mRNA expression were quantified in triplicate. Data were measured with CFX Software (Bio-Rad). […]

CC[C@H](C)[C@H](NC(=O)[C@H](CC(C)C)NC(=O)[C@H](C)NC(=O)[C@@H]1CCCN1C(=O)[C@H](CC(C)C)NC(=O)CNC(=O)[C@@H](NC(=O)[C@@H](NC(=O)[C@H](CC(C)C)NC(=O)[C@@H](NC(C)=O)C(C)C)[C@@H](C)O)[C@@H](C)O)C(=O)N[C@@H](CO)C(=O)N[C@@H](Cc1c[nH]c2ccccc12)C(=O)N[C@H](C(=O)N[C@@H](CCCCN)C(=O)N[C@@H](CCCNC(=N)N)C(=O)N[C@@H](CCCCN)C(=O)N[C@@H](CCCNC(=N)N)C(=O)N[C@@H](CCC(N)=O)C(=O)N[C@@H](CCC(N)=O)C(=O)NCC(=O)NCC(=O)NCC(=O)NCC(=O)N[C@@H](CO)C(=O)N[C@H](CCCCN)C(=O)N[C@H](CC(C)C)C(=O)N[C@H](C)C(=O)N[C@H](CCCCN)C(=O)N[C@H](CC(C)C)C(=O)N[C@H](C)C(=O)N[C@H](CCCCN)C(=O)N[C@H](CCCCN)C(=O)N[C@H](CC(C)C)C(=O)N[C@H](C)C(=O)N[C@H](CCCCN)C(=O)N[C@H](CC(C)C)C(=O)N[C@H](C)C(=O)N[C@H](CCCCN)C(=O)O)[C@@H](C)CC [MpepK]
tumor volume (CT26): significantly reduced
tumor weight (CT26): not significantly changed
inhibitory effect on EMT and FMT of epithelial cells [1]: no significant inhibitory effect
